Patent EP3290417A1, “2-CHLORO-N-[2-(1,3-THIAZOL-5-YL)ETHYL]-5-(5-FLUOROPYRIMIDIN-2-YL)-BENZAMIDES AND THEIR USE AS P2X7 RECEPTOR ANTAGONISTS” (AXXAM S.p.A., priority 2016, dated 2018)

Legend:
[1] = target: T1, human P2X7 channel (Homo sapiens, UniProt Q99572); assay: human P2X7 channel assay by automated patch-clamp (QPatch16X, whole-cell voltage clamp); format: cell-based; conditions: HEK-293 cells expressing the P2X7 channels; current evoked by 100 microM BzATP; held at -80 mV; room temperature; read-out: hP2X7 (IC50; nM)
T1 construct: expressed in transfected cells; host or cells: HEK-293
T1 sequence (Q99572 1-595): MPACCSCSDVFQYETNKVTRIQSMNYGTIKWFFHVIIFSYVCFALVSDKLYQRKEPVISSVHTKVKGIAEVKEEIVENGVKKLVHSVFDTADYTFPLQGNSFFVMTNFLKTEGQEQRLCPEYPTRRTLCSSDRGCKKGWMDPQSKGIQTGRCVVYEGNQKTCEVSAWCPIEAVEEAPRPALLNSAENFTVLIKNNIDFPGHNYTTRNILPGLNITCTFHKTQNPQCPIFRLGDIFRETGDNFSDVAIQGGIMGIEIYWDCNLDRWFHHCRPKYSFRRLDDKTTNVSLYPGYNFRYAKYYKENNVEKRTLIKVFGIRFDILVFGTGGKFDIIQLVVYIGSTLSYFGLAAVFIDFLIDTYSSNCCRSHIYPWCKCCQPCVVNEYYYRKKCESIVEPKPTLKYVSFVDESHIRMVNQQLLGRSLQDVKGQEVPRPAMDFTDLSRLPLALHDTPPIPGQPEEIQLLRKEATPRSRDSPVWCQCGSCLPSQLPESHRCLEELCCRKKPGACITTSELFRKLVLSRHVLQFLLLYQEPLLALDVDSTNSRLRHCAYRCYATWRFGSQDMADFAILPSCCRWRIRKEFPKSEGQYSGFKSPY
Procedure: In order to directly monitor the block of P2X7 channel, an electrophysiological assay was developed and implemented on the QPatch16X automated electrophysiology instrument.
HEK-293 cells expressing the P2X7 channels were cultured in modified EMEM.
72 hours before experiment, 5 million cells were seeded onto T225 flasks. Just before the experiment cells were washed twice, detached from the flask with trypsin-EDTA, re-suspended in the suspension solution and placed on the QPatch 16x.
The compounds (20 mM in a 100% DMSO) stored at -20°C were prepared the day of the experiment (a first dilution 1:20 in 100% DMSO to prepare a 1 mM stock solution, then a 1 microM solution in external solution + a serial dilution 1:10).
The standard whole-cell voltage clamp experiments were performed at room temperature. For these experiments the multihole technology was used and the data were sampled at 2 KHz.
The intracellular solution contained (mM) 135 CsF, 10 NaCl, 1 EGTA, 10 HEPES, (pH 7.2 with CsOH) whereas the extracellular contained (mM) 145 NaCl, 4 KCl, 0.5 MgCl2, 1 CaCl2, 10 HEPES, 10 Glc (pH 7.4 with NaOH).
After establishment of the seal and the passage in the whole cell configuration, the cells were held at -80 mV. The P2XR7 current was evoked by applying 100 microM of BzATP alone (4 times) and then in the presence increasing concentrations of the compound under investigation (1, 10, 100 and 1000 nM).
The pre-incubation periods 5 to 8 contain increasing concentrations of the compound of interest (1, 10, 100 and 1000 nM), as illustrated in Figure.
The maximal inward current evoked by BzATP in absence or presence of increasing concentrations of the compounds under investigation was measured and normalized. The potential modulatory effect was measured as % of control and as IC50 determined fitting the dose-response curves data with the following equation: Y = 100/(1+10^(∧)((LogIC50−X)*HillSlope)) [formula] where: • X: log of concentration • Y: normalized response, 100% down to 0%, decreasing as X increases. • LogIC50: same log units as X • HillSlope: slope factor or HS, unitless

[2] = target: T2, rat P2X7R (Rattus norvegicus, UniProt Q64663); assay: rat P2X7 Ca2+ influx assay, Screen Quest Fluo-8 No Wash Calcium Assay Kit (FLIPRTETRA); format: cell-based; conditions: HEK-293 cells stably transfected with rat P2X7R; BzATP at ~EC80; 5' incubation with compound; read-out: rP2X7 (IC50; nM)
T2 construct: expressed in transfected cells; host or cells: HEK-293 (stably transfected)
T2 sequence (Q64663 1-595): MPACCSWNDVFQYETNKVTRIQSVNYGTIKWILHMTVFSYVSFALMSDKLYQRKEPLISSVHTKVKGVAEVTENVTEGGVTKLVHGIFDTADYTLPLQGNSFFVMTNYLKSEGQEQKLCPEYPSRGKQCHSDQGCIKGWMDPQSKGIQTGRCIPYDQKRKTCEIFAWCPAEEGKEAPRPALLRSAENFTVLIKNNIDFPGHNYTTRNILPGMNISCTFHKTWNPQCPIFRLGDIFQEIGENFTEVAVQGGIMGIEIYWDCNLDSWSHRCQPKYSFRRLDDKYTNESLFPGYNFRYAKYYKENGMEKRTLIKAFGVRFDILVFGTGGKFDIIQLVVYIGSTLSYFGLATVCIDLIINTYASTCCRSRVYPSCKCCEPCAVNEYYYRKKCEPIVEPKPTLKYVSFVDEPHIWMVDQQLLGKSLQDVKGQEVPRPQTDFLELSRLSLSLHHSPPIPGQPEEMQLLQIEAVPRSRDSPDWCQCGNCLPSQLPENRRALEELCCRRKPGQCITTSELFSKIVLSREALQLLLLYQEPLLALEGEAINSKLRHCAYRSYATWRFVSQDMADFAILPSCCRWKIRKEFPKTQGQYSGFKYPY
Procedure: Ca^2+ influx was measured in HEK-293 cells stably transfected with the receptor using Screen Quest™ Fluo-8 No Wash Calcium Assay Kit (AAt Bioquest®). Briefly, once inside the cells, the lipophilic blocking groups of Fluo-8 are cleaved by non-specific cell esterases, resulting in a negatively-charged fluorescent-dye that stays inside cells. Its fluorescence increases upon binding to calcium. When HEK-293/P2X7 cells were stimulated with BzATP, Ca^2+ entered the cells and the fluorescence of Fluo-8 NW increaseed. The dye absorption spectrum was compatible with excitation at 488 nm by argon laser sources and its emission wavelength was in the range of 515-575 nm. […]
Compounds were tested at FLIPRTETRA according to the following method: • first injection at FLIPRTETRA of 10 µL of 3x test compound (in Tyrode's buffer 0.3 mM Ca^2+ / Mg^2+-free + DMSO 0.5% final concentration) • 5' incubation • second injection at FLIPRTETRA of 15 µL of 3x BzATP at ∼EC80 (in Tyrode's buffer 0.3 mM Ca^2+ / Mg^2+-free + BSA 0.0003% final concentration) • Fluorescence recording for 3' […]
The effect of the test compounds was measured as percent inhibition vs the reference antagonist and IC50 values were calculated accordingly.

[3] = metabolic stability in mouse liver microsomes; format: in vitro ADME; conditions: 1 µM test compound, 1 mg/mL protein, pH 7.4, 0-60 minutes
Procedure: In vitro evaluation of test compounds for metabolic stability using Rat or Mouse liver
Test System Rat or Mouse Liver Microsomes
• Test compound concentration: 1 µM • Time Points: 0, 5, 10, 30 and 60 minutes • Final Protein concentration: 1 mg/mL • Number of Replicates: Two • Potassium Phosphate Buffer pH 7.4 100 mM • End Point: % Remaining of Test compound, Half life, Clint • Bioanalysis by LC-MS/MS
10 mM stock solution of test compound were prepared in DMSO and dilute with water: acetonitrile (1:1) to a concentration of 1 mM. Working concentration of 100 µM were prepared by further dilution with water: acetonitrile (1: 1).
100 mL of Milli Q water will be added to K2HPO4 (1.398 g) and KH2PO4 (0.27 g) to get final pH 7.4.
Preincubation mixtures: 2.5 µL Test Cpd. + 75 µL Liver microsomes @ 3.33 mg/mL + 85 µL of 100 mM potassium phosphate buffer (Preincubate for 10 min @ 37°C)
60 min w/o cofactor: 32.5 µL of Preincubation mixture + 17.5 µL of 100 mM potassium phosphate buffer (Incubate for 60 min @ 37°C)
0 min sample: 16.25 µL of Preincubation mixture + 200 µL of acetonitrile containing internal standard + 8.75 µL of cofactor Incubation mixture 62 µL of cofactor (2.5 mM) + Remaining incubation mixture (Incubated for 60 min@ 37°C).
Sample preparation: 25 µL incubation mixture + 200 µL of acetonitrile containing internal standard + Vortex 5 min @ 1200 rpm + Centrifuge 10 min @ 4000 rpm. […]

Row | Molecule | IC50 [1] | IC50 [2] | Mouse Liver Microsomal Clearance (Cli; µL/min/mg) [3]
1 | O=C(NCC(c1cnc(C(F)F)s1)N1CCOCC1)c1cc(-c2ncc(F)cn2)ccc1Cl (racemic) [Compound 1, (±)-2-chloro-N-{2-[2-(difluoromethyl)-1,3-thiazol-5-yl]-2-(morpholin-4-yl)ethyl}-5-(5-fluoropyrimidin-2-yl)benzamide] | 47.1 nM | 66 nM | 
2 | O=C(NCC(c1cnc(C(F)F)s1)N1CCOCC1)c1cc(-c2ncc(F)cn2)ccc1Cl (single isomer, unassigned; (-)) [Compound 3, (-)-2-chloro-N-{2-[2-(difluoromethyl)-1,3-thiazol-5-yl]-2-(morpholin-4-yl)ethyl}-5-(5-fluoropyrimidin-2-yl)benzamide] | 27 nM | 48 nM | 
3 | O=C(NCC(c1scnc1CF)N1CCC(F)(F)CC1)c1cc(-c2ncc(F)cn2)ccc1Cl (centres unmarked) [Compound 6, 2-chloro-N-{2-[4-(fluoromethyl)-1,3-thiazol-5-yl]-2-(4,4-difluoropiperidin-1-yl)ethyl}-5-(5-fluoropyrimidin-2-yl)benzamide] | 33.3 nM |  | 47.3 µL/min/mg
4 | O=C(NCC(c1cnc(CF)s1)N1CCOCC1)c1cc(-c2ncc(F)cn2)ccc1Cl (centres unmarked) [Compound 7, 2-chloro-N-{2-[2-(fluoromethyl)-1,3-thiazol-5-yl]-2-(morpholin-4-yl)ethyl}-5-(5-fluoropyrimidin-2-yl)benzamide] | 38.3 nM |  | 
5 | O=C(NCC(c1cnc(CF)s1)N1CCC(F)(F)CC1)c1cc(-c2ncc(F)cn2)ccc1Cl (centres unmarked) [Compound 8, 2-chloro-N-{2-[2-(fluoromethyl)-1,3-thiazol-5-yl]-2-(4,4-difluoropiperidin-1-yl)ethyl}-5-(5-fluoropyrimidin-2-yl)benzamide] | 20.3 nM |  | 

Continued, values first:

Row | IC50 [1] | IC50 [2] | Mouse Liver Microsomal Clearance (Cli; µL/min/mg) [3] | Molecule
6 | 103 nM |  |  | 2-chloro-N-{2-[4-(cyclopropyl)-1,3-thiazol-5-yl]-2-(4,4-difluoropiperidin-1-yl)ethyl}-5-(5-fluoropyrimidin-2-yl)benzamide [Compound 4]
7 | 64.6 nM |  |  | O=C(NCC(c1scnc1CO)N1CCC(F)(F)CC1)c1cc(-c2ncc(F)cn2)ccc1Cl (centres unmarked) [Compound 5, 2-chloro-N-{2-[4-(hydroxymethyl)-1,3-thiazol-5-yl]-2-(4,4-difluoropiperidin-1-yl)ethyl}-5-(5-fluoropyrimidin-2-yl)benzamide]
8 | 39.2 nM |  |  | C#Cc1ncc(C(CNC(=O)c2cc(-c3ncc(F)cn3)ccc2Cl)N2CCC(F)(F)CC2)s1 (centres unmarked) [Compound 9, 2-chloro-N-[2-(4,4-difluoropiperidin-1-yl)-2-(2-ethynyl-1,3-thiazol-5-yl)ethyl]-5-(5-fluoropyrimidin-2-yl)benzamide]
